# Values joined by “and” are separate entries in the source; they are usually repeats but may differ in a detail not shown here. Equal entries are not always repeated. Where two headings read alike, the source gives them in different places.
# Experiments:
# [1] = biological target: T1, β1-AR (Homo sapiens, UniProt P08588); assay: competition binding assay, membranes with recombinant β1-AR
# T1 construct: expressed in transfected cells; membranes used
# [2] = biological target: β2-AR (Homo sapiens, UniProt P07550); assay: competition binding assay, membranes with recombinant β2-AR
# [3] = tested on: human plasma proteins; assay: plasma protein binding; type: in vitro ADME
# [4] = biological target: CYP3A4 (Homo sapiens, UniProt P08684); assay: in vitro metabolism by CYPs; type: in vitro ADME
# [5] = multiple rising dose Phase 1 pharmacokinetics in healthy subjects; type: in vivo, human; conditions: for concentration at 14 days: plasma, oral, read-out: Ctrough
# [6] = relative bioequivalence of aqueous and non-aqueous tablets; type: in vivo, human; conditions: 50 mg
# Description: An open-label, single-dose, randomized, two-period, two-treatment, two-sequence, crossover Phase 1 study evaluated the relative bioequivalence of two types of tablets with slightly different composition: aqueous tablet (test) and non-aqueous tablet (reference).
# [7] = effect of food on oral absorption (single and multiple dose); type: in vivo, human; conditions: for mean AUC0-24 with food compared to fasted state / mean Cmax with food compared to fasted state: 150 mg multiple oral doses, middle-aged and elderly females
# [8] = single-dose PK in patients with moderate hepatic impairment; type: in vivo, human; conditions: single 100 mg
# [9] = tested on: healthy subjects; assay: thorough QT single oral dose study; type: in vivo, human
# [10] = 150 mg multiple doses, middle-aged females, Day 14
# [11] = single 50 mg, Japanese young males
# [12] = single 50 mg, non-Japanese young males
# T1 sequence (P08588 whole entry): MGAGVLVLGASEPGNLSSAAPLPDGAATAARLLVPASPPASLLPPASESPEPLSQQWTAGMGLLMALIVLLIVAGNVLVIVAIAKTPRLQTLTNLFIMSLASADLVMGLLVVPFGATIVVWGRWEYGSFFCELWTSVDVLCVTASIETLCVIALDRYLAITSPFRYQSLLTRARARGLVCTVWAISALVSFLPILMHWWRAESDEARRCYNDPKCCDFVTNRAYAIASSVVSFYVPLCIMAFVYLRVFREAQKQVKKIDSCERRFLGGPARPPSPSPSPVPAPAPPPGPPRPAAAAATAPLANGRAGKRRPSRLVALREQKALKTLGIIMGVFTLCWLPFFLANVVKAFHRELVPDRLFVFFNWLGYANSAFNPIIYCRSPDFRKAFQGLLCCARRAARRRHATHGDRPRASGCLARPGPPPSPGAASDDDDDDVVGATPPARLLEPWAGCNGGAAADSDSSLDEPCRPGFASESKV
# Sequence of CYP3A4 (P08684 whole entry): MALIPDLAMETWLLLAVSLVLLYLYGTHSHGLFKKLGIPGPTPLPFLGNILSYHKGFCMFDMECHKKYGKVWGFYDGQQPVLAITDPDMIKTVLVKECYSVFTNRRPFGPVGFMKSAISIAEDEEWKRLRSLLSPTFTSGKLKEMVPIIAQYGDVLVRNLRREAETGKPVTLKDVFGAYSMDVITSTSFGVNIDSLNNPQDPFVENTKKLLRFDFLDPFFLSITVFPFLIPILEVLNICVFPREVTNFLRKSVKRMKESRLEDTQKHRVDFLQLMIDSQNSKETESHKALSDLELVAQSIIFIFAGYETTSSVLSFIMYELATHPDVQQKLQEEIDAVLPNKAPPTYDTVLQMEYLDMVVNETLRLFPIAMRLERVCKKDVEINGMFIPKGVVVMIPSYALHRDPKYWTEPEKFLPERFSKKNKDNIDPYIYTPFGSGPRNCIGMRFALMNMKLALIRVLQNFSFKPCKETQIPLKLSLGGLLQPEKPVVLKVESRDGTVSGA
# Sequence of β2-AR (P07550 whole entry): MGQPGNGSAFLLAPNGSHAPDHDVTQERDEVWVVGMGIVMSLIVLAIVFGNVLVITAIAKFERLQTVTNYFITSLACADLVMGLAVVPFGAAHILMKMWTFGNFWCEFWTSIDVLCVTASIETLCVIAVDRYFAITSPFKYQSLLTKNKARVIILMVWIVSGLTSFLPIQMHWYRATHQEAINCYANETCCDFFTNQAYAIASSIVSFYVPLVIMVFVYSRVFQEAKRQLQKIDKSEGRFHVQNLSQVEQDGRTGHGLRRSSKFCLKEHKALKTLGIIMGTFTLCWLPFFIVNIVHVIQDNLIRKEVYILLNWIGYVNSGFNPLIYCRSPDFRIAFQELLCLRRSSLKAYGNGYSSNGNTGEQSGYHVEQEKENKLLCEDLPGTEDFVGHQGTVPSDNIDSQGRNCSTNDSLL
smiles,measurement,setting,value
"O=C(Nc1ccc(C[C@@H]2CC[C@H]([C@H](O)c3ccccc3)N2)cc1)[C@@H]1CCc2nccc(=O)n21 [vibegron, (6S)—N-[4-[[(2S,5R)-5-[(R)-hydroxy(phenyl)methyl]pyrrolidin-2-yl]methyl]phenyl]-4-oxo-7,8-dihydro-6H-pyrrolo[1,2-a]pyrimidine-6-carboxamide]",binding to β1-AR,[1],does not bind
same,binding to β2-AR,[2],does not bind
same,bound to human plasma proteins,[3],approximately 49%
same,unbound in plasma,[3],49%
same,CYP responsible for in vitro metabolism,[4],CYP3A4 is the predominant CYP
same,"fraction of dose excreted at steady state (fe0-24hr, ss)","[5]; 100 mg, elderly subjects",~17%
same,"fraction of dose excreted at steady state (fe0-24hr, ss)","[5]; 100 and 150 mg, young males",~14%
same,steady state exposure (AUC0-24) higher in elderly Japanese than elderly non-Japanese,[5]; Day 14,35%
same,steady state Cmax in elderly compared to young males,[5]; QD doses of 100 mg,~1.3 fold
same,concentration at 14 days,"[5]; both sexes, human, 100 mg, multiple dose 100 mg, after 14 days, Elderly Male and Female",54.2 ng/mL
same,Cmax higher in elderly and females than healthy young males,"[5]; human, in vivo",50-70%
same,Cmax increased in elderly Japanese compared to elderly non-Japanese,"[5]; human, in vivo",82%
same,steady state AUC in middle-aged females compared to middle-aged males,"[5]; human, in vivo",~1.5 fold
same,steady state exposures higher in Japanese than non-Japanese young males,"[5]; human, in vivo",~30%
same,concentration at 14 days,"[5]; male, human, 50 mg, multiple dose 50 mg, after 14 days, healthy young males",15.2 ng/mL
same,concentration at 14 days,"[5]; male, human, 100 mg, multiple dose 100 mg, after 14 days, healthy young males, Japanese",41 ± 11 ng/mL
same,concentration at 14 days,"[5]; male, human, 100 mg, multiple dose 100 mg, after 14 days, healthy young males",31.9 ng/mL
same,"t1/2, harmonic mean ± pseudo SD","[5]; multiple dose 150 mg, after 14 days, healthy young males",79.2 ± 9.2 h
same,AUC0-24,"[5]; multiple dose 200 mg, after 14 days, healthy young males",3200 ± 1120 ng·h/mL
same,"t1/2, harmonic mean ± pseudo SD","[5]; multiple dose 400 mg, after 14 days, healthy young males",58.9 ± 5.9 h
same,time to steady state concentrations,[5]; once daily dosing,≤ 7 days
same,exposures (AUC) higher in females compared with males,[5]; regardless of age,50%
same,AUC0-inf GMR test to reference tablet,[6],100.2%
same,Cmax GMR test to reference tablet,[6],107.7%
same,reduction in mean AUC0-24hr with food vs fasted,[7]; [10],20%
same,reduction in mean Cmax with food vs fasted,[7]; [10],47%
same,mean AUC0-24 with food compared to fasted state,[7]; Day 1,~42%
same,mean Cmax with food compared to fasted state,[7]; Day 1,59%
same,mean AUC0-24 with food compared to fasted state,[7]; Day 14,~20%
same,mean Cmax with food compared to fasted state,[7]; Day 14,43%
same,Ctrough,"[7]; multiple dose 150 mg, day 14, Non-Japanese middle-aged females, Fasted",62.7 ± 12.4 ng/mL
same,reduction in AUC0-inf with standard Japanese breakfast,[7]; [11],37%
same,reduction in Cmax with standard Japanese breakfast,[7]; [11],52%
same,delay in Tmax with high-fat meal vs fasted,[7]; [12],~1 h
same,reduction in AUC0-inf with high-fat meal vs fasted,[7]; [12],46%
same,reduction in Cmax with high-fat meal vs fasted,[7]; [12],67%
same,"CL/F, geometric mean",[8]; Healthy Matched Control Subjects,68.3 L/h
same,"CL/F, geometric mean",[8]; Moderate Hepatic Impairment,56.0 L/h
same,"AUC, mean ± SD",[9]; single 200 mg,2430 ± 974 ng·h/mL
same,Maximum Mean Placebo Corrected Change from Baseline Diastolic BP,[9]; single 200 mg,2.42 mmHg
same,Maximum Mean Placebo Corrected Change from Baseline RR interval,[9]; single 200 mg,-84.36 ms
same,Maximum Mean Placebo Corrected Change from Baseline Systolic BP,[9]; single 200 mg,2.20 mmHg
same,upper limits of the 90% CIs of all QTcF mean differences from placebo,[9]; single 200 mg and 400 mg,< 10 ms
same,QTcF LS mean difference from placebo,"[9]; single 200 mg, 0.5 hour",2.90 ms
same,"QTcF change from baseline, LS mean","[9]; single 200 mg, 0.5 hour",1.90 ms
same,"QTcF change from baseline, LS mean","[9]; single 200 mg, 1 hour",4.87 ms
same,QTcF LS mean difference from placebo,"[9]; single 200 mg, 1 hour (maximum)","4.98 (3.07, 6.88) msec and 4.98 msec"
same,QTcF LS mean difference from placebo,"[9]; single 200 mg, 2 hour",2.14 ms
same,"QTcF change from baseline, LS mean","[9]; single 200 mg, 2 hour",2.06 ms
same,QTcF LS mean difference from placebo,"[9]; single 200 mg, 3 hour",0.40 ms
same,"QTcF change from baseline, LS mean","[9]; single 200 mg, 3 hour",1.14 ms
same,QTcF LS mean difference from placebo,"[9]; single 200 mg, 4 hour",-0.83 ms
same,"QTcF change from baseline, LS mean","[9]; single 200 mg, 4 hour",-0.40 ms
same,QTcF LS mean difference from placebo,"[9]; single 200 mg, 6 hour",-1.26 ms
same,"QTcF change from baseline, LS mean","[9]; single 200 mg, 6 hour",-6.89 ms
same,QTcF LS mean difference from placebo,"[9]; single 200 mg, 8 hour",-1.24 ms
same,"QTcF change from baseline, LS mean","[9]; single 200 mg, 8 hour",-9.59 ms
same,QTcF LS mean difference from placebo,"[9]; single 200 mg, 10 hour",-2.67 ms
same,"QTcF change from baseline, LS mean","[9]; single 200 mg, 10 hour",-8.82 ms
same,QTcF LS mean difference from placebo,"[9]; single 200 mg, 12 hour",-3.72 ms
same,"QTcF change from baseline, LS mean","[9]; single 200 mg, 12 hour",-6.82 ms
same,QTcF LS mean difference from placebo,"[9]; single 200 mg, 23.5 hour",0.38 ms
same,"QTcF change from baseline, LS mean","[9]; single 200 mg, 23.5 hour",-2.15 ms
same,"AUC, mean ± SD",[9]; single 400 mg,6800 ± 2300 ng·h/mL
same,Maximum Mean Placebo Corrected Change from Baseline Diastolic BP,[9]; single 400 mg,3.99 mmHg
same,Maximum Mean Placebo Corrected Change from Baseline RR interval,[9]; single 400 mg,-162.45 ms
same,Maximum Mean Placebo Corrected Change from Baseline Systolic BP,[9]; single 400 mg,3.97 mmHg
